These results are taken from the supplement of paper PMC6965134.

The data set can be described thus: TIMS collisional cross section (CCS, N2) of the lipid ion; higher = larger ion cross section. Particulars: ionization mode: positive, one isomer drawn. Here is the method:
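Lipid extracts of human plasma (NIST SRM 1950), mouse liver and HeLa cells were separated by nanoflow C18 LC (30 min gradient, 60 °C) and analysed by TIMS-PASEF on a timsTOF Pro in positive ion mode. Ion mobility was calibrated with the Agilent tuning mix and converted to collisional cross sections (Mason–Schamp) in N2 drift gas. Lipids were identified by MS/MS (SimLipid) and manual curation. SMILES are LIPID MAPS representative structures for the annotated lipid.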

± gives the standard deviation of the averaged measurements.

As to `CC/C=C\C/C=C\C/C=C\C/C=C\C/C=C\C/C=C\CCC(=O)OC[C@@H](COC(=O)CCCCCCC/C=C\C/C=C\CCCCC)OC(=O)CCCCC/C=C\C/C=C\C/C=C\C/C=C\CCCCC` [TG 18:2_22:4_22:6] (ion (formula + adduct): [C65H102O6+NH4] 1+), the “TIMS collisional cross section” value (sample type: Liver) is 335.6 Å².

Take `CCCC/C=C\CCCCCCCC(=O)O[C@@H](COC(=O)CCCCCCC/C=C\CCCCCC)COC(=O)CCCCCCCCCCC` [TG 12:0_14:1_16:1] (ion (formula + adduct): [C45H82O6+NH4] 1+): the “TIMS collisional cross section” value (sample type: HeLa) amounted to 290.3 Å².

In the case of `CCCCCCCC/C=C\CCCCCCCCCC(=O)O[C@H](CO/C=C\CCCCCCCCCCCCCC)COP(=O)(O)OCCN` [PE P- 16:0@_20:1] (ion (formula + adduct): [C41H80NO7P+H] 1+), the “TIMS collisional cross section” value (sample type: HeLa) is recorded as 280.8 Å².

Turning to `CCCCCCCC/C=C\CCCCCCCC(=O)O[C@@H](CO)COC(=O)CCCCCCCCCCCCC` [DG 14:0_18:1_0:0] (ion (formula + adduct): [C35H66O5+NH4] 1+), the “TIMS collisional cross section” value (sample type: plasma) was 255.9 Å².

Take `CCCCC/C=C\C/C=C\CCCCCCCC(=O)O[C@@H](CO)COC(=O)CCCCCCCCCCCCC` [DG 14:0_18:2_0:0] (ion (formula + adduct): [C35H64O5+NH4] 1+): the “TIMS collisional cross section” value (sample type: Liver) is 252 Å².

As to `CCCCCCCC/C=C\CCCCCCCCCCCCCC(=O)N[C@@H](COP(=O)([O-])OCC[N+](C)(C)C)[C@H](O)/C=C/CCCCCCCCCCCCC` [SM d18:1_24:1@] (ion (formula + adduct): [C47H93N2O6P+H] 1+), the “TIMS collisional cross section” value stood at 305.4 ± 0.14 Å² (sample type: HeLa), 305.3 Å² (sample type: Liver) and 305.5 Å² (sample type: plasma).

Regarding `CC/C=C\C/C=C\C/C=C\C/C=C\CCCCC(=O)O[C@H](COC(=O)CCCCCCC/C=C\CCCCCCCC)COP(=O)([O-])OCC[N+](C)(C)C` [PC 18:1@_18:4] (ion (formula + adduct): [C44H78NO8P+H] 1+), the “TIMS collisional cross section” value (sample type: HeLa) came out at 289.4 Å².

For the molecule `CC/C=C\C/C=C\C/C=C\C/C=C\C/C=C\C/C=C\CCC(=O)OC[C@@H](COC(=O)CCCCCCC/C=C\CCCCCCCC)OC(=O)CCCCCCCCC/C=C\CCCCCCCC` [TG 18:1_20:1_22:6] (ion (formula + adduct): [C63H106O6+NH4] 1+), where the note is “sample type: HeLa”, the “TIMS collisional cross section” value is recorded as 336.5 Å².

`CCCCC/C=C\C/C=C\C/C=C\CCCCCCC(=O)O[C@@H](CO)COC(=O)CCCCCCCCCCCCCCC` [DG 16:0_20:3_0:0] (ion (formula + adduct): [C39H70O5+H] 1+): the “TIMS collisional cross section” value (sample type: Liver) is 265.1 Å².

As to `CCCCCC/C=C\CCCCCCCC(=O)OC[C@@H](COC(=O)CCCCCCCCCCCCC)OC(=O)CCCCCCCCCCCCCC` [TG 14:0_15:0_16:1] (ion (formula + adduct): [C48H90O6+NH4] 1+), the “TIMS collisional cross section” value (sample type: HeLa) was 302.8 Å² and the “TIMS collisional cross section” value (sample type: plasma) was 302.85 ± 0.49 Å².

As for `CCCCCCCC/C=C\CCCCCCCC(=O)OC[C@@H](COC(=O)CCCCCCCCCCCC)OC(=O)CCCCCCCCCCCCC` [TG 13:0_14:0_18:1] (ion (formula + adduct): [C48H90O6+NH4] 1+), the “TIMS collisional cross section” value (sample type: Liver) turned out to be 303.1 Å².

For `CCCCCC/C=C\CCCCCCCC(=O)OC[C@H](CO)OC(=O)CCCCCCC/C=C\CCCCCCCC` [DG 16:1_18:1_0:0] (ion (formula + adduct): [C37H68O5+H] 1+), for the setting “sample type: HeLa”, the “TIMS collisional cross section” value is on record as 258.1 Å².

Consider `CCCCCC/C=C\CCCCCCCC(=O)OC[C@H](COC(=O)CCCCCCC/C=C\CCCCCCC)OC(=O)CCCCCCC/C=C\CCCCCCC` [TG 16:1_17:1_17:1] (ion (formula + adduct): [C53H96O6+NH4] 1+), for which, for the setting “sample type: HeLa”, the “TIMS collisional cross section” value came out at 314.8 Å².

As for `C[C@H](CO)CC[C@H](O)[C@@H](C)[C@H]1CC[C@H]2[C@@H]3CC=C4C[C@@H](O)CC[C@]4(C)[C@H]3CC[C@]12C` [Dormatinol] (ion (formula + adduct): [C27H46O3+H] 1+), where the note is “sample type: plasma”, the “TIMS collisional cross section” value was found to be 210.9 Å².

For the molecule `CCCCC/C=C\C/C=C\C/C=C\C/C=C\CCCCCC(=O)OC[C@@H](COC(=O)CCCCCCCCCCCCCCC)OC(=O)CCCCCCC/C=C\C/C=C\CCCCC` [TG 16:0_18:2_22:4] (ion (formula + adduct): [C59H102O6+NH4] 1+), the “TIMS collisional cross section” value (sample type: Liver) was 328 Å² and the “TIMS collisional cross section” value (sample type: plasma) is recorded as 327.9 Å².

In the case of `CCCCCCCC/C=C\CCCCCCCC(=O)OC[C@@H](COC(=O)CCCCCCCCCCCCC)OC(=O)CCCCCCCCCCCCC` [TG 14:0_14:0_18:1] (ion (formula + adduct): [C49H92O6+NH4] 1+), for the setting “sample type: Liver”, the “TIMS collisional cross section” value is given as 305.9 Å².

With `CCCCCCCCCCCCCCCC(=O)OC[C@@H](O)COP(=O)(O)OCCN` [LPE 16:0] (ion (formula + adduct): [C21H44NO7P+H] 1+), the “TIMS collisional cross section” value amounted to 214.5 Å² (sample type: HeLa), 215.9 ± 2.1 Å² (sample type: Liver) and 215.7 ± 2.5 Å² (sample type: plasma).

Consider `CCCCCCCC/C=C\CCCCCCCC(=O)O[C@H](COC(=O)CCCCCCCCCCCCCCC)COP(=O)([O-])OCC[N+](C)(C)C` [PC 16:0_18:1] (ion (formula + adduct): [C42H82NO8P+Na] 1+), for which the “TIMS collisional cross section” value (sample type: HeLa) was found to be 288.7 Å².

As to `CCCCC/C=C\C/C=C\C/C=C\C/C=C\CCCC(=O)OC[C@@H](O)COP(=O)([O-])OCC[N+](C)(C)C` [LPC 20:4] (ion (formula + adduct): [C28H50NO7P+H] 1+), the “TIMS collisional cross section” value (sample type: Liver) was 230 Å² and the “TIMS collisional cross section” value (sample type: plasma) is 231.65 ± 3.2 Å².

As for `CCCCCCCCCCCCCCCC(=O)O[C@H](COC(=O)CCCCCCCCCCCCC)COP(=O)([O-])OCC[N+](C)(C)C` [PC 14:0_16:0] (ion (formula + adduct): [C38H76NO8P+H] 1+), the “TIMS collisional cross section” value (sample type: HeLa) is given as 280.6 Å².

For the molecule `CCCCC/C=C\CCCCCCCC(=O)OC[C@H](COC(=O)CCCCCCC/C=C\CCCCCCC)OC(=O)CCCCCCC/C=C\CCCCCC` [TG 15:1_16:1_17:1] (ion (formula + adduct): [C51H92O6+NH4] 1+), the “TIMS collisional cross section” value (sample type: Liver) was 308.7 Å².

As for `CC/C=C\C/C=C\C/C=C\C/C=C\C/C=C\C/C=C\CCC(=O)OC[C@@H](COC(=O)CCCCCCCCCCCCCCC)OC(=O)CCCCC/C=C\C/C=C\C/C=C\C/C=C\C/C=C\CC` [TG 16:0_22:5_22:6] (ion (formula + adduct): [C63H100O6+NH4] 1+), the “TIMS collisional cross section” value (sample type: HeLa) was 332.8 Å².

As for `CCCCCCCCCCCCCCCCCC(=O)OC[C@@H](O)COP(=O)(O)O[C@H]1C(O)C(O)C(O)[C@@H](O)C1O` (some centres undefined) [LPI 18:0] (ion (formula + adduct): [C27H53O12P+H] 1+), the “TIMS collisional cross section” value came to 248.8 Å² (sample type: HeLa), 249.1 Å² (sample type: Liver) and 248.8 Å² (sample type: plasma).

As for `CCCCCCCCCCCCCCCCCCCCCC(=O)OC[C@@H](COC(=O)CCCCCCCCCCCCCCCCC)OC(=O)CCCCCCCCCCCCCCCCCC` [TG 18:0_19:0_22:0] (ion (formula + adduct): [C62H120O6+NH4] 1+), the “TIMS collisional cross section” value (sample type: Liver) worked out at 346.5 Å².

Take `CCCCCCCC/C=C\CCCCCCCCCCCC(=O)O[C@@H](CO)COC(=O)CCCCCCC/C=C\CCCCCCCC` [DG 18:1_22:1_0:0] (ion (formula + adduct): [C43H80O5+NH4] 1+): the “TIMS collisional cross section” value (sample type: Liver) is 278.5 Å².

In the case of `CC/C=C\C/C=C\C/C=C\C/C=C\C/C=C\CCCC(=O)O[C@H](COC(=O)CCCCCCCCCCCCCCC)COP(=O)([O-])OCC[N+](C)(C)C` [PC 16:0_20:5@] (ion (formula + adduct): [C44H78NO8P+H] 1+), the “TIMS collisional cross section” value (sample type: HeLa) worked out at 286.9 Å².

Take `CCCCC/C=C\C/C=C\C/C=C\CCCCCCC(=O)OC[C@@H](COC(=O)CCCCCCCCCCCCCCC)OC(=O)CCCCCCC/C=C\C/C=C\CCCCC` [TG 16:0_18:2_20:3] (ion (formula + adduct): [C57H100O6+NH4] 1+): the “TIMS collisional cross section” value (sample type: Liver) turned out to be 322.3 Å².

As to `CCCCCCCC/C=C\CCCCCCCC(=O)O[C@H](COC(=O)CCCCCCCCCCCCCCCC)COP(=O)([O-])OCC[N+](C)(C)C` [PC 17:0@_18:1] (ion (formula + adduct): [C43H84NO8P+H] 1+), under “sample type: HeLa”, the “TIMS collisional cross section” value was 291.8 Å².

Turning to `CCCCCCCC/C=C\CCCCCCCC(=O)O[C@H](COC(=O)CCCCCCCCCCCCCCCCC)COP(=O)(O)OCCN` [PE 18:0@_18:1] (ion (formula + adduct): [C41H80NO8P+H] 1+), the “TIMS collisional cross section” value is, setting by setting: (sample type: Liver) 282.2 Å²; (sample type: plasma) 282.1 Å².

On to `CC/C=C\C/C=C\C/C=C\C/C=C\C/C=C\C/C=C\CCC(=O)O[C@H](COC(=O)CCCCCCCCCCCCC)COP(=O)([O-])OCC[N+](C)(C)C` [PC 14:0@_22:6] (ion (formula + adduct): [C44H76NO8P+H] 1+), for which the “TIMS collisional cross section” value (sample type: plasma) is recorded as 284.8 Å².

As for `CCCCCCCC/C=C\CCCCCCCCCC(=O)O[C@H](COC(=O)CCCCCCC/C=C\CCCCCCCC)COC(=O)CCCCCCCCCCCCCCCCCCCCC` [TG 18:1_20:1_22:0] (ion (formula + adduct): [C63H118O6+NH4] 1+), the “TIMS collisional cross section” value was determined as 344.7 Å² (sample type: HeLa) and 345.8 Å² (sample type: Liver).

On to `CCCCC/C=C\C/C=C\C/C=C\C/C=C\CCCC(=O)OC[C@@H](COC(=O)CCCCCCC/C=C\CCCCCCC)OC(=O)CCCCCCC/C=C\C/C=C\CCCCC` [TG 17:1_18:2_20:4] (ion (formula + adduct): [C58H98O6+NH4] 1+), for which, for the setting “sample type: Liver”, the “TIMS collisional cross section” value is 322.8 Å².

As to `CCCCCCCC/C=C\CCCCCCCC(=O)OC[C@@H](COC(=O)CCCCCCCCCCCCCCCCC)OC(=O)CCCCCCCCCCCCCCCCC` [TG 18:0_18:0_18:1] (ion (formula + adduct): [C57H108O6+NH4] 1+), the “TIMS collisional cross section” value (sample type: plasma) is recorded as 330.6 Å².
